Each structure is given as a SMILES string. pIC50: −log10 of the molar value.

A word on the pIC50: it is the IC50 on a negative log10 scale, so that one unit is a factor of ten.

The target in the assay is T1, MAGL (recombinant wild-type) (Homo sapiens, UniProt Q99685).
T1 sequence (Q99685 1-303): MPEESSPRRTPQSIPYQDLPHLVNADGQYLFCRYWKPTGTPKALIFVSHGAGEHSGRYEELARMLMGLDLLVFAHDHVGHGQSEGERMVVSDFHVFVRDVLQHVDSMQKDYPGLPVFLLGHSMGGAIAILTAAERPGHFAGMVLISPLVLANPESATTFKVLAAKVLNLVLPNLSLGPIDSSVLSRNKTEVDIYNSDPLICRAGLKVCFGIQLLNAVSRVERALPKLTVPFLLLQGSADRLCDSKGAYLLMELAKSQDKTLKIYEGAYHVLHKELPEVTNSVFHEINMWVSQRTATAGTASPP
Kind of assay: 4-NPA assay: MAGL inhibitory activity by hydrolysis of 4-nitrophenylacetate, absorbance at 405 nm. Particulars: 4-NPA assay (values without footnote [b]). In kind it is biochemical. As for the experimental part:
Compounds were profiled for MAGL inhibitory activity by measuring the enzymatic activity of MAGL by following the hydrolysis of 4-nitrophenylacetate resulting in 4-nitrophenol, which absorbs at 405-412 nm (G. G. Muccioli, G. Labar, D. M. Lambert, Chem. Bio. Chem. 2008, 9, 2704-2710). This assay is hereinafter abbreviated “4-NPA assay”.
The assay was carried out in 384 well assay plates (black with clear bottom, non-binding surface treated, Corning Ref. 3655) in a total volume of 40 μL. Compound dilutions were made in 100% DMSO (VWR Chemicals 23500.297) in a polypropylene plate in 3-fold dilution steps to give a final concentration range in the assay from 25 μM to 1.7 nM. 1 μL compound dilutions (100% DMSO) were added to 19 μL MAGL (recombinant wild-type) in assay buffer (50 mM TRIS (GIBCO, 15567-027), 1 mM EDTA (Fluka, 03690-100 mL)). The plate was shaked for 1 min at 2000 rpm (Variomag Teleshake) and then incubated for 15 min at RT. To start the reaction, 20 μL 4-Nitrophenlyacetate (Sigma N-8130) in assay buffer with 6% EtOH was added. The final concentrations in the assay were 1 nM MAGL and 300 μM 4-Nitrophenylacetate. After shaking (1 min, 2000 rpm) and 5 min incubation at RT, the absorbance at 405 nm was measured for a first time (Molecular Devices, SpectraMax Paradigm). A second measurement was then done after incubation for 80 min at RT. From the two measurements, the slope was calculated by subtracting the first from the second measurement.
For `CCC(CC)c1nc2ccc(C(=O)N3CCN(c4nc5nc(C)ccc5o4)CC3)cc2o1` [Example 15, [2-(1-ethylpropyl)-1,3-benzoxazol-6-yl]-[4-(5-methyloxazolo[4,5-b]pyridin-2-yl)piperazin-1-yl]methanone], the negative-log IC50 (pIC50) was 6.45.
Regarding `CC(C)(C)Cc1nnc(-c2ccc(C(=O)N3CCN(c4nc5nc(Cl)ccc5o4)CC3)cc2)o1` [Example 16, [4-(5-chlorooxazolo[4,5-b]pyridin-2-yl)piperazin-1-yl]-[4-[5-(2,2-dimethylpropyl)-1,3,4-oxadiazol-2-yl]phenyl]methanone], the negative-log IC50 (pIC50) is 8.00.
In the case of `Cc1ccc2oc(N3CCN(C(=O)c4ccc5nc(C6CCCCC6)oc5c4)CC3)nc2n1` [Example 17, (2-cyclohexyl-1,3-benzoxazol-6-yl)-[4-(5-methyloxazolo[4,5-b]pyridin-2-yl)piperazin-1-yl]methanone], the pIC50 was 7.44.
With `Cc1ccc2oc(N3CCN(C(=O)c4ccc5nc(CCC(F)(F)F)oc5c4)CC3)nc2n1` [Example 18, [4-(5-methyloxazolo[4,5-b]pyridin-2-yl)piperazin-1-yl]-[2-(3,3,3-trifluoropropyl)-1,3-benzoxazol-6-yl]methanone], the pIC50 was 6.36.
Consider `CC(C)(C)Cn1cc(-c2ccc(C(=O)N3CCN(c4nc5nc(Cl)ccc5o4)CC3)cc2)cn1` [Example 19, [4-(5-chlorooxazolo[4,5-b]pyridin-2-yl)piperazin-1-yl]-[4-[1-(2,2-dimethylpropyl)pyrazol-4-yl]phenyl]methanone], for which the pIC50 is 8.70.
With `CC(C)(CF)c1nc(-c2ccc(C(=O)N3CCN(c4nc5nc(Cl)ccc5o4)CC3)cc2)no1` [Example 20, (4-(5-chlorooxazolo[4,5-b]pyridin-2-yl)piperazin-1-yl)(4-(5-(1-fluoro-2-methylpropan-2-yl)-1,2,4-oxadiazol-3-yl)phenyl)methanone] the figure was 7.72; with `CC/C=C/c1nc2ccc(C(=O)N3CCN(c4nc5nc(C)ccc5o4)CC3)cc2o1` [Example 21, [2-[(E)-but-1-enyl]-1,3-benzoxazol-6-yl]-[4-(5-methyloxazolo[4,5-b]pyridin-2-yl)piperazin-1-yl]methanone], 6.74.
In the case of `Cc1ccc2oc(N3CCN(C(=O)c4ccc5nc(C6CC6)oc5c4)CC3)nc2n1` [Example 22, (2-cyclopropyl-1,3-benzoxazol-6-yl)-[4-(5-methyloxazolo[4,5-b]pyridin-2-yl)piperazin-1-yl]methanone], the pIC50 was 5.90.
Regarding `CC(=O)Cc1nc(-c2ccc(C(=O)N3CCN(c4nc5nc(Cl)ccc5o4)CC3)cc2)no1` [Example 23, 1-[3-[4-[4-(5-chlorooxazolo[4,5-b]pyridin-2-yl)piperazine-1-carbonyl]phenyl]-1,2,4-oxadiazol-5-yl]propan-2-one], the pIC50 was 5.81.
For `CC(C)(F)c1nc(-c2ccc(C(=O)N3CCN(c4nc5nc(Cl)ccc5o4)CC3)cc2)no1` [Example 24, [4-(5-chlorooxazolo[4,5-b]pyridin-2-yl)piperazin-1-yl]-[4-[5-(1-fluoro-1-methyl-ethyl)-1,2,4-oxadiazol-3-yl]phenyl]methanone], the pIC50 was 7.13.
With `CC(C)(C)Cc1noc(-c2ccc(C(=O)N3CCN(c4nc5nc(Cl)ccc5o4)CC3)cc2)n1` [Example 25, [4-(5-chlorooxazolo[4,5-b]pyridin-2-yl)piperazin-1-yl]-[4-[3-(2,2-dimethylpropyl)-1,2,4-oxadiazol-5-yl]phenyl]methanone] the figure was 8.52; with `O=C(c1ccc(-c2noc(C3(F)CC3)n2)cc1)N1CCN(c2nc3nc(Cl)ccc3o2)CC1` [Example 26, [4-(5-chlorooxazolo[4,5-b]pyridin-2-yl)piperazin-1-yl]-[4-[5-(1-fluorocyclopropyl)-1,2,4-oxadiazol-3-yl]phenyl]methanone], 6.69.
For `CC(C)(C)Cn1cnc(-c2ccc(C(=O)N3CCN(c4nc5nc(Cl)ccc5o4)CC3)cc2)n1` [Example 27, [4-(5-chlorooxazolo[4,5-b]pyridin-2-yl)piperazin-1-yl]-[4-[1-(2,2-dimethylpropyl)-1,2,4-triazol-3-yl]phenyl]methanone], the pIC50 was 8.52.
On to `Cc1ccc2oc(N3CCN(C(=O)c4ccc(-c5ncn(CC(C)(C)C)n5)cc4)CC3)nc2n1` [Example 28, [4-[1-(2,2-dimethylpropyl)-1,2,4-triazol-3-yl]phenyl]-[4-(5-methyloxazolo[4,5-b]pyridin-2-yl)piperazin-1-yl]methanone], for which the pIC50 was 7.92.
In the case of `CC(C)(C)Cn1cnc(-c2ccc(C(=O)N3CCN(c4nc5nc(Cl)ccc5o4)CC3)cc2)c1` [Example 29, [4-(5-chlorooxazolo[4,5-b]pyridin-2-yl)piperazin-1-yl]-[4-[1-(2,2-dimethylpropyl)imidazol-4-yl]phenyl]methanone], the pIC50 is 8.52.
In the case of `CC(C)(C)c1nnc(-c2ccc(C(=O)N3CCN(c4nc5nc(Cl)ccc5o4)CC3)cc2)o1` [Example 30, [4-(5-tert-butyl-1,3,4-oxadiazol-2-yl)phenyl]-[4-(5-chlorooxazolo[4,5-b]pyridin-2-yl)piperazin-1-yl]methanone; 2,2,2-trifluoroacetic acid], the pIC50 was 7.17.
Take `Cc1ccc2oc(N3CCN(C(=O)c4ccc(-c5nnc(C(C)(C)C)o5)cc4)CC3)nc2n1` [Example 31, [4-(5-tert-butyl-1,3,4-oxadiazol-2-yl)phenyl]-[4-(5-methyloxazolo[4,5-b]pyridin-2-yl)piperazin-1-yl]methanone]: the pIC50 was 6.59.
With `CC(C)(O)Cc1nc(-c2ccc(C(=O)N3CCN(c4nc5nc(Cl)ccc5o4)CC3)cc2)no1` [Example 32, [4-(5-chlorooxazolo[4,5-b]pyridin-2-yl)piperazin-1-yl]-[4-[5-(2-hydroxy-2-methyl-propyl)-1,2,4-oxadiazol-3-yl]phenyl]methanone], the pIC50 is 6.19.
Regarding `Cc1ccc2oc(N3CCN(C(=O)c4ccc(-c5nnc(C(C)(C)CF)o5)cc4)CC3)nc2n1` [Example 33, [4-[5-(2-fluoro-1,1-dimethyl-ethyl)-1,3,4-oxadiazol-2-yl]phenyl]-[4-(5-methyloxazolo[4,5-b]pyridin-2-yl)piperazin-1-yl]methanone], the pIC50 was 6.30.
Turning to `CC(C)(CF)c1nnc(-c2ccc(C(=O)N3CCN(c4nc5nc(Cl)ccc5o4)CC3)cc2)o1` [Example 34, [4-(5-chlorooxazolo[4,5-b]pyridin-2-yl)piperazin-1-yl]-[4-[5-(2-fluoro-1,1-dimethyl-ethyl)-1,3,4-oxadiazol-2-yl]phenyl]methanone; 2,2,2-trifluoroacetic acid], the pIC50 is 6.75.
Turning to `Cc1ccc2oc(N3CCN(C(=O)c4ccc(-c5noc(C6(F)CC6)n5)cc4)CC3)nc2n1` [Example 35, [4-[5-(1-fluorocyclopropyl)-1,2,4-oxadiazol-3-yl]phenyl]-[4-(5-methyloxazolo[4,5-b]pyridin-2-yl)piperazin-1-yl]methanone], the negative-log IC50 (pIC50) is 6.43.
`Cc1ccc2oc(N3CCN(C(=O)c4ccc(-c5noc(C6(CF)CC6)n5)cc4)CC3)nc2n1` [Example 36, [4-[5-[1-(fluoromethyl)cyclopropyl]-1,2,4-oxadiazol-3-yl]phenyl]-[4-(5-methyloxazolo[4,5-b]pyridin-2-yl)piperazin-1-yl]methanone]: the pIC50 was 6.59.
Consider `O=C(c1ccc(-c2noc(C3(CF)CC3)n2)cc1)N1CCN(c2nc3nc(Cl)ccc3o2)CC1` [Example 37, [4-(5-chlorooxazolo[4,5-b]pyridin-2-yl)piperazin-1-yl]-[4-[5-[1-(fluoromethyl)cyclopropyl]-1,2,4-oxadiazol-3-yl]phenyl]methanone], for which the pIC50 was 7.00.
Take `Cc1ccc2oc(N3CCN(C(=O)c4ccc(-c5nc(C(C)(C)C)no5)cc4)CC3)nc2n1` [Example 38, [4-(3-tert-butyl-1,2,4-oxadiazol-5-yl)phenyl]-[4-(5-methyloxazolo[4,5-b]pyridin-2-yl)piperazin-1-yl]methanone]: the pIC50 was 7.35.
With `CC(C)(C)c1noc(-c2ccc(C(=O)N3CCN(c4nc5nc(Cl)ccc5o4)CC3)cc2)n1` [Example 39, [4-(3-tert-butyl-1,2,4-oxadiazol-5-yl)phenyl]-[4-(5-chlorooxazolo[4,5-b]pyridin-2-yl)piperazin-1-yl]methanone], the pIC50 was 7.72.
Take `CC1(Cc2nc(-c3ccc(C(=O)N4CCN(c5nc6nc(Cl)ccc6o5)CC4)cc3)no2)CC1` [Example 40, [4-(5-chlorooxazolo[4,5-b]pyridin-2-yl)piperazin-1-yl]-[4-[5-[(1-methylcyclopropyl)methyl]-1,2,4-oxadiazol-3-yl]phenyl]methanone]: the pIC50 is 8.22.

These data come from patent US20220135591A1, “HETEROCYCLIC COMPOUNDS AS INHIBITORS OF MONOACYLGLYCEROL LIPASE (MAGL)” (Hoffmann-La Roche Inc., priority 2019, published 2022).
